Assay results published in patent publication US8853188B2, “Compositions and methods for cancer treatment” (Women and Infants Hospital of RI, Inc., priority 2005, dated 2014).

Key:
Format in all cases: cell-based
[1] = system: IMR-32 cells; test: Proliferation of apoptosis-resistant NB cells; conditions: data not shown
[2] = system: ERK1/2; test: Western Blot analysis of ERK phosphorylation; conditions: neuroblastoma cells
Protocol: Materials and methods. Proliferation was measured by MTS and BrdU incorporation assays. Apoptosis was assessed by DNA fragmentation, Cell Death Detection ELISA and caspase-3-assays. Effect of B3CD on TrkB signaling by BDNF was assessed by Western Blot analysis of AKT and ERK phosphorylation. The effect on angiogenesis was determined by chick chorioallantoic membrane (CAM) assay and aortic ring assay.
Neuroblastoma cells were treated with B3CD for 48 hrs. […] AT 0.5 nM, B3CD inhibited >50% (p<0.035) and >90% at […] (p<0.01) viability and proliferation respectively.

[3] = system: Human umbilical vein endothelial cells (HUVEC); test: Endothelial cell BrdU incorporation assay; conditions: 25-400 nM, 24 hours
Protocol: Human umbilical vein endothelial cells (HUVEC) were treated with B3CD (25, 50, 100, 200 and 400 nM) for 24 hours and proliferation was measured as before. Vehicle and CD treated controls were used in each experiment. […] Following the treatment with B3CD, the endothelial cells were rounded up and floated, showing indications of apoptosis similar to NB.

**Q.** For `C=C1CC[C@H](OC(=O)CBr)C/C1=C/C=C1\CCC[C@]2(C)[C@@H]([C@H](C)CCCC(C)(C)O)CC[C@@H]12` [B3CD, bromoacetic acid 3-{2-[1-(5-hydroxy-1,5-dimethyl-hexyl)-7a-methyl-octahydro-inden-4-ylidene]-ethylidene}-4-methylene-cyclohexyl ester], which inhibition of proliferation [1] is on record?
**A.** dose dependent inhibition of proliferation

**Q.** And the “phosphorylation of ERK1/2” value [2]?
**A.** inhibited phosphorylation

**Q.** And the BrdU incorporation [3]?
**A.** strongly inhibited BrdU incorporation
